Measurements: PMC11910330, “Familial Alzheimer’s disease mutations in amyloid precursor protein impair calcineurin signaling to NMDA receptors” (The Journal of Biological Chemistry, 2024)

Tested on: GluN1A/GluN2A NMDARs
Experiment: Whole-cell recording of glutamate-evoked NMDAR currents in HEK 293 cells expressing GluN1A/GluN2A
Type: cell-based
Method: HEK 293 cells (ATCC Cat# CRL-1573) were obtained at passage 37 and used for a maximum of six passages. Cell cultures were maintained in Dulbecco’s modified Eagle’s medium (DMEM) with 10% fetal bovine serum (Life Technologies, Inc.) and penicillin/streptomycin (P/S). For electrophysiology, cells were plated at low density (∼50,000 cells/ml) on 15-mm round glass coverslips in 12-well plates. Cells were transfected using the Ca^2+ phosphate method with 1 μg of each construct per coverslip. For control cells, 0.3 μg of pEGFP (GenBank U55762.1) was included as a transfection marker. Epifluorescence was used to confirm the expression of the corresponding APP family members and APP FAD mutants. For biochemistry, HEK 293 cells were plated at ∼50% confluence on 10 cm dishes. HEK 293 cells were transfected by the Ca^2+ phosphate method. For these experiments, 4 μg of each construct was used, with 1 μg of mCherry (GenBank AY678264.1) used as a transfection marker. Experiments were performed 24 h after transfection.
Twenty-four hours after transfection, HEK 293 cells were visually selected for recording by GFP epifluorescence. […] whole-cell recordings of NMDA receptor currents were obtained with a Multiclamp 700A amplifier (Molecular Devices) and digitized through a Digidata 1332A using Clampex 10.3 software. Patch pipettes (2–5 MΩ for HEK 293 cells; 3–6 MΩ for neurons) contained (in mM) the following: 140 Cs methanesulfonate, 10 Hepes, five ATP (Na salt), 5 MgCl2, and 0.2 EGTA + 0.01 CaCl2 or 10 BAPTA + 0.2 CaCl2 (pH 7.4). QX-314 (2 mM) was included in the pipette solution for neuronal recordings to ensure the block of voltage-gated Na^+ currents. The extracellular solution contained (in mM) 150 NaCl, 5 KCl, 1.8 CaCl2, 10 Hepes, 11.1 glucose, 0.1 glycine (pH 7.4) and flowed at a rate of 1 to 2 ml/min. For neuronal recordings, this solution was supplemented with tetrodotoxin (0.3 μM), NBQX (10 μM), and picrotoxin (100 μM), to block voltage-gated Na^+ channels, AMPA receptors, and GABA receptors, respectively. HEK cells were lifted from the coverslip after establishment of the whole-cell configuration, to speed solution exchange, and placed ∼20 μm from the mouth of a series of flow pipes, which were controlled by solenoid valves and moved into position by a piezoelectric bimorph. With this configuration, solution exchanges were accomplished within 10 to 12 ms as assessed by the rise time (20–80%) of whole-cell agonist-evoked current responses. Flow pipes were lowered to within ∼50 μm of the surface of the coverslip and placed ∼100 to 150 μm from the soma of the cell. Currents were digitized at 2 kHz and filtered at 1 kHz. Series resistance (90–95% HEK cells; 60–70% neurons) and whole-cell capacitance compensation were employed, and input resistance was routinely monitored by 5 mV hyperpolarizing jumps between agonist applications. Cells showing sudden shifts in these parameters were discarded. Experiments were performed at a holding potential of −60 mV at 20 °C. Currents were elicited by a 3 s (5 s for neurons) application of glutamate (1 mM) in the extracellular recording solution. Desensitization was quantified as the ratio of average current remaining in the last 50 ms of the agonist application to the peak current using Clampfit 10.3 software. […] Current density was calculated by dividing the peak current by the compensated whole-cell capacitance.

| Molecule | effect on NMDAR current amplitude (in words) (10 mM BAPTA in pipette, APP-expressing cells, within 1–3 min) | effect on NMDAR desensitization (in words) (10 mM BAPTA in pipette, GFP controls and APP-expressing cells) | effect on NMDAR current amplitude (in words) (10 mM BAPTA in pipette, GFP-expressing cells) | effect on NMDAR desensitization (in words) (CsA 1 μM, GFP-expressing cells, relative to untreated cells) | ss/p ratio in APP-expressing cells (in words) (CsA 1 μM, low intracellular EGTA) |
| --- | --- | --- | --- | --- | --- |
| O=C(O)CN(CC(=O)O)c1ccccc1OCCOc1ccccc1N(CC(=O)O)CC(=O)O [BAPTA] | increase in the amplitude of GluN1A/GluN2A currents | did not appear to modify the degree of NMDAR desensitization | declined in amplitude by a similar extent to that seen with low EGTA concentrations | – | – |
| cyclosporin A [CsA] | – | – | – | desensitization appeared modestly enhanced | no longer different (and modestly elevated) compared to GFP-expressing cells |
